Experimental data from patent publication US11078193B2 (priority 2014, dated 2021).

Legend:
HBV [1] = experiment: anti-HBV activity, HepG2.2.15 stable transfected cell line, HBV DNA from secreted virions by realtime PCR; format: cell-based; conditions: Hepatitis B virus, 144 h, HepG2.2.15 cells, 6 days of treatment
HBV [2] = experiment: anti HBV activity, HepG2.117 inducibly HBV producing cell line (Tet-off), intracellular HBV DNA by realtime PCR; format: cell-based; conditions: Hepatitis B virus, 72 h, HepG2.117 cells, 3 days of treatment
[3] = Cytotoxicity, HepG2 cells, Resazurin assay; format: cell-based; conditions: human
[4] = ATP based toxicity assay (ATPlite), HepG2 cell line; conditions: human, HepG2 cells, ATPlite (ATP levels)
Procedure, shortened: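 HepG2 cells exposed to compound, then ATPlite reagent added at 1 volume. Cellular ATP read by luminescence as a viability measure.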

Structure (SMILES) | EC50 (HBV [1]) [nM] | EC50 (HBV [2]) [nM] | melting point [°C] | CC50 at 4 days [3] [nM] | CC50 at 4 days [4] [nM]
Cc1nc(NC(=O)c2c(Cl)c(S(=O)(=O)N[C@H](C)C(F)(F)F)cn2C)ccc1F [Compound 7, 3-Chloro-N-(5-fluoro-6-methylpyridin-2-yl)-1-methyl-4-{[(1R)-2,2,2-trifluoro-1-methylethyl]sulfamoyl}-1H-pyrrole-2-carboxamide] | 90 | 250 | 173.1 | > 25000 | > 25000
Cc1cc(NC(=O)c2c(Cl)c(S(=O)(=O)N[C@H](C)C(F)(F)F)cn2C)ccn1 [Compound 8, 3-Chloro-1-methyl-N-(2-methylpyridin-4-yl)-4-{[(1R)-2,2,2-trifluoro-1-methylethyl]sulfamoyl}-1H-pyrrole-2-carboxamide] | 90 | 170 | 203.5 | > 25000 | 
C[C@@H](NS(=O)(=O)c1cn(C)c(C(=O)Nc2ccnc(C#N)c2)c1Cl)C(F)(F)F [Compound 9, 3-Chloro-N-(2-cyanopyridin-4-yl)-1-methyl-4-{[(1R)-2,2,2-trifluoro-1-methylethyl]sulfamoyl}-1H-pyrrole-2-carboxamide] | 20 | 40 | 190.8 | > 25000 | > 25000
C[C@@H](NS(=O)(=O)c1cn(C)c(C(=O)Nc2ccnc(F)c2)c1Cl)C(F)(F)F [Compound 11, 3-Chloro-N-(2-fluoropyridin-4-yl)-1-methyl-4-{[(1R)-2,2,2-trifluoro-1-methylethyl]sulfamoyl}-1H-pyrrole-2-carboxamide] | 20 | 60 | 218.1 | > 25000 | 
C[C@@H](NS(=O)(=O)c1cn(C)c(C(=O)Nc2ccnc(Cl)c2)c1Cl)C(F)(F)F [Compound 12, 3-Chloro-N-(2-chloropyridin-4-yl)-1-methyl-4-{[(1R)-2,2,2-trifluoro-1-methylethyl]sulfamoyl}-1H-pyrrole-2-carboxamide] | 10 | 20 | 214.8 | > 25000 | > 25000
Cc1nccc(NC(=O)c2c(Cl)c(S(=O)(=O)N[C@H](C)C(F)(F)F)cn2C)c1F [Compound 14, 3-chloro-N-(3-fluoro-2-methyl-4-pyridyl)-1-methyl-4-[[(1R)-2,2,2-trifluoro-1-methyl-ethyl]sulfamoyl]pyrrole-2-carboxamide] | 60 | 120 | 197.8 | > 25000 | 
C[C@@H](NS(=O)(=O)c1cn(C)c(C(=O)Nc2ccccn2)c1Cl)C(F)(F)F [Compound 15, 3-chloro-1-methyl-N-(2-pyridyl)-4-[[(1R)-2,2,2-trifluoro-1-methyl-ethyl]sulfamoyl]pyrrole-2-carboxamide] | > 1000 | > 1000 | 195.2 | > 25000 | 
C[C@@H](NS(=O)(=O)c1cn(C)c(C(=O)Nc2ccncc2)c1Cl)C(F)(F)F [Compound 16, 3-chloro-1-methyl-N-(4-pyridyl)-4-[[(1R)-2,2,2-trifluoro-1-methyl-ethyl]sulfamoyl]pyrrole-2-carboxamide] | 400 | 280 | 259.3 | > 25000 | 
C[C@@H](NS(=O)(=O)c1cn(C)c(C(=O)Nc2cccnc2)c1Cl)C(F)(F)F [Compound 17, 3-chloro-1-methyl-N-(3-pyridyl)-4-[[(1R)-2,2,2-trifluoro-1-methyl-ethyl]sulfamoyl]pyrrole-2-carboxamide] | 750 | 530 | 196.6 | > 25000 | 
Cn1cc(S(=O)(=O)NC2(C(F)(F)F)CCC2)c(Cl)c1C(=O)Nc1ccnc(Cl)c1 [Compound 46, 3-chloro-N-(2-chloro-4-pyridyl)-1-methyl-4-[[1-(trifluoromethyl)cyclobutyl]-sulfamoyl]pyrrole-2-carboxamide] | 10 | 20 |  | > 25000 | > 25000
C[C@@H](NS(=O)(=O)c1cn(C)c(C(=O)Nc2ccnc(Cl)c2)c1F)C(C)(F)F [Compound 61, N-(2-chloro-4-pyridyl)-4-[[(1R)-2,2-difluoro-1-methyl-propyl]sulfamoyl]-3-fluoro-1-methyl-pyrrole-2-carboxamide] | 10 | 20 |  | > 25000 | > 25000
C[C@@H](NS(=O)(=O)c1cn(C)c(C(=O)Nc2ccnc(C#N)c2)c1F)C(C)(F)F [Compound 63, N-(2-cyano-4-pyridyl)-4-[[(1R)-2,2-difluoro-1-methyl-propyl]sulfamoyl]-3-fluoro-1-methyl-pyrrole-2-carboxamide] | 10 | 30 |  | > 25000 | > 25000
C[C@@H](NS(=O)(=O)c1cn(C)c(C(=O)Nc2ccnc(C(F)F)c2)c1Cl)C(F)(F)F [Compound 74, 3-chloro-N-[2-(difluoromethyl)-4-pyridyl]-1-methyl-4-[[(1R)-2,2,2-trifluoro-1-methyl-ethyl]sulfamoyl]pyrrole-2-carboxamide] | 20 | 20 |  | > 25000 | > 25000
C[C@@H](NS(=O)(=O)c1cn(C)c(C(=O)Nc2ccnc(C(F)F)c2)c1F)C(F)(F)F [Compound 80, N-[2-(difluoromethyl)-4-pyridyl]-3-fluoro-1-methyl-4-[[(1R)-2,2,2-trifluoro-1-methyl-ethyl]sulfamoyl]pyrrole-2-carboxamide] | 10 | 20 |  | > 25000 | > 25000
Cn1cc(S(=O)(=O)NC2(C)CC(F)(F)C2)c(F)c1C(=O)Nc1ccnc(Cl)c1F [Compound 81, N-(2-chloro-3-fluoro-4-pyridyl)-4-[(3,3-difluoro-1-methyl-cyclobutyl)sulfamoyl]-3-fluoro-1-methyl-pyrrole-2-carboxamide] | 10 | 8 |  | 24300 | > 25000
C[C@@H](NS(=O)(=O)c1cn(C)c(C(=O)Nc2ccnc(C(F)F)c2)c1F)C(C)(F)F [Compound 88, 4-[[(1R)-2,2-difluoro-1-methyl-propyl]sulfamoyl]-N-[2-(difluoromethyl)-4-pyridyl]-3-fluoro-1-methyl-pyrrole-2-carboxamide] | 7 | 10 |  | > 25000 | > 25000
C[C@@H](NS(=O)(=O)c1cn(C)c(C(=O)Nc2ccnc(F)c2)c1Cl)C(C)(F)F [Compound 95, 3-chloro-4-[[(1R)-2,2-difluoro-1-methyl-propyl]sulfamoyl]-N-(2-fluoro-4-pyridyl)-1-methyl-pyrrole-2-carboxamide] | 60 | 40 |  | 21600 | > 25000
C[C@@H](NS(=O)(=O)c1cn(C)c(C(=O)Nc2ccnc(C(F)F)c2)c1Cl)C(C)(F)F [Compound 97, 3-chloro-4-[[(1R)-2,2-difluoro-1-methyl-propyl]sulfamoyl]-N-[2-(difluoromethyl)-4-pyridyl]-1-methyl-pyrrole-2-carboxamide] | 20 | 20 |  | > 25000 | > 25000
C[C@@H](NS(=O)(=O)c1cn(C)c(C(=O)Nc2ccnc(F)c2)c1F)C(C)(F)F [Compound 98, 4-[[(1R)-2,2-difluoro-1-methyl-propyl]sulfamoyl]-3-fluoro-N-(2-fluoro-4-pyridyl)-1-methyl-pyrrole-2-carboxamide] | 40 | 30 |  | > 25000 | > 25000
Cn1cc(S(=O)(=O)NC2(C)CC(F)(F)C2)c(Cl)c1C(=O)Nc1ccnc(C(F)F)c1 [Compound 99, 3-chloro-4-[(3,3-difluoro-1-methyl-cyclobutyl)sulfamoyl]-N-[2-(difluoromethyl)-4-pyridyl]-1-methyl-pyrrole-2-carboxamide] | 10 | 20 |  | > 25000 | > 25000
C[C@@H](NS(=O)(=O)c1cn(C)c(C(=O)Nc2cc(F)nc(F)c2)c1Cl)C(C)(F)F [Compound 104, 3-chloro-4-[[(1R)-2,2-difluoro-1-methyl-propyl]sulfamoyl]-N-(2,6-difluoro-4-pyridyl)-1-methyl-pyrrole-2-carboxamide] | < 100 | 10 |  | > 25000 | > 25000
C[C@@H](NS(=O)(=O)c1cn(C)c(C(=O)Nc2ccnc(Br)c2)c1Cl)C(C)(F)F [Compound 105, N-(2-bromo-4-pyridyl)-3-chloro-4-[[(1R)-2,2-difluoro-1-methyl-propyl]sulfamoyl]-1-methyl-pyrrole-2-carboxamide] | < 100 | 20 |  | > 25000 | 23300
Cc1cc(NC(=O)c2c(F)c(S(=O)(=O)N[C@H](C)C(F)(F)F)cn2C)cc(F)n1 [Compound 152, 3-fluoro-N-(2-fluoro-6-methyl-4-pyridyl)-1-methyl-4-[[(1R)-2,2,2-trifluoro-1-methyl-ethyl]sulfamoyl]pyrrole-2-carboxamide] | < 100 | 10 |  | > 25000 | > 25000
C[C@@H](NS(=O)(=O)c1cn(C)c(C(=O)Nc2cc(F)nc(F)c2)c1F)C(C)(F)F [Compound 159, 4-[[(1R)-2,2-difluoro-1-methyl-propyl]sulfamoyl]-N-(2,6-difluoro-4-pyridyl)-3-fluoro-1-methyl-pyrrole-2-carboxamide] | < 100 | 9 |  | > 25000 | > 25000
